According to PMC12913247 (Pharmaceutical Research, 2025):
“And” between values parts separate entries of the source, which are not always exact repeats. Equal entries are not always repeated.

How the values were obtained:
[1] = target: T1, MCT1 (Homo sapiens, UniProt P53985); experiment: [14C]L-lactate uptake by HIBCPP cells; assay type: cell-based; details: IB pH 6.0
T1 sequence (P53985 1-500): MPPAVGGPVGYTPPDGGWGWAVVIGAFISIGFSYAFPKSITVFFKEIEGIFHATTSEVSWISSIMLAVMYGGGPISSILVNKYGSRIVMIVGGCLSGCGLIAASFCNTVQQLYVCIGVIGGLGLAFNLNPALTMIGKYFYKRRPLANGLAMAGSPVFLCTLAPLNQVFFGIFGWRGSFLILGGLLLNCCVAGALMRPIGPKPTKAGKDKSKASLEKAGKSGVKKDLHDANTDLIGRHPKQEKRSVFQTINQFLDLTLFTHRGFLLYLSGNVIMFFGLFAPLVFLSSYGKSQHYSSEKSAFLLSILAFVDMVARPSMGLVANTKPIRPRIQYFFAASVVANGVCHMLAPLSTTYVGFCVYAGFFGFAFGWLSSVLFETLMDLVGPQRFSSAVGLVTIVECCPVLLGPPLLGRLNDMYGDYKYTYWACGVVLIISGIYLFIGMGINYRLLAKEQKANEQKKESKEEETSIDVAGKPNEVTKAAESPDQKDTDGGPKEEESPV

[2] = Transcellular transport; details: human
[3] = test system: HIBCPP cell layer; experiment: Transcellular transport; details: for Papp,correct in the BL-to-AP direction relative to the AP-to-BL direction: BL-to-AP greater than AP-to-BL; for Papp,correct AP-to-BL / Papp,correct BL-to-AP: corrected by lucifer yellow
[4] = target: T2, SLC35F2 (Homo sapiens, UniProt Q8IXU6); experiment: YM155 uptake by HIBCPP cells; assay type: cell-based; details: 30 s
T2 sequence (Q8IXU6 1-374): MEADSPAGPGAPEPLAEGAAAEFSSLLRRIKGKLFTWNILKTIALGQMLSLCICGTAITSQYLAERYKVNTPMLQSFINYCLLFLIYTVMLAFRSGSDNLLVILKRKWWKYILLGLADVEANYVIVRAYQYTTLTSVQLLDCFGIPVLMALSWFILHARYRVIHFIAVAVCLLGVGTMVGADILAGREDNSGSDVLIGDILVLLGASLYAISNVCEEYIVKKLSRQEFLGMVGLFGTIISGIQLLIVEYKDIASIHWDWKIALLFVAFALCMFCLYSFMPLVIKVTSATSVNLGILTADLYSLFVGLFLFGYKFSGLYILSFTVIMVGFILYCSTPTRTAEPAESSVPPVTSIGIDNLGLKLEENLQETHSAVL

[5] = target: LAT1 (Homo sapiens, UniProt Q01650); experiment: Gabapentin uptake by HIBCPP cells; assay type: cell-based
Chain of LAT1 (Q01650 whole entry): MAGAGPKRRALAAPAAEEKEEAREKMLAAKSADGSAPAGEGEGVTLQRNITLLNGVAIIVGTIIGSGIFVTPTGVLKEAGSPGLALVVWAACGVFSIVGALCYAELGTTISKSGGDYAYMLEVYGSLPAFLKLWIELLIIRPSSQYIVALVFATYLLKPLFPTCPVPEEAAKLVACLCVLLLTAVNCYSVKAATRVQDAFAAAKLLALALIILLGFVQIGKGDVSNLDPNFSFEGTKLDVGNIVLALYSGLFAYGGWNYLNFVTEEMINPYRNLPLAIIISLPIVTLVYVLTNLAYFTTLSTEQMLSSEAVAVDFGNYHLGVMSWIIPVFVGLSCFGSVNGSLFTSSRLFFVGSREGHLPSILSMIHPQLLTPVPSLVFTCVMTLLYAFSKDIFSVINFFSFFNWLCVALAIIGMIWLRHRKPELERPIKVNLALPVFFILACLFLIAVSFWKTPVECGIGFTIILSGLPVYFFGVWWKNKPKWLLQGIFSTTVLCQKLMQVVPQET
Chain of LAT1 (P08195 102-630 partner): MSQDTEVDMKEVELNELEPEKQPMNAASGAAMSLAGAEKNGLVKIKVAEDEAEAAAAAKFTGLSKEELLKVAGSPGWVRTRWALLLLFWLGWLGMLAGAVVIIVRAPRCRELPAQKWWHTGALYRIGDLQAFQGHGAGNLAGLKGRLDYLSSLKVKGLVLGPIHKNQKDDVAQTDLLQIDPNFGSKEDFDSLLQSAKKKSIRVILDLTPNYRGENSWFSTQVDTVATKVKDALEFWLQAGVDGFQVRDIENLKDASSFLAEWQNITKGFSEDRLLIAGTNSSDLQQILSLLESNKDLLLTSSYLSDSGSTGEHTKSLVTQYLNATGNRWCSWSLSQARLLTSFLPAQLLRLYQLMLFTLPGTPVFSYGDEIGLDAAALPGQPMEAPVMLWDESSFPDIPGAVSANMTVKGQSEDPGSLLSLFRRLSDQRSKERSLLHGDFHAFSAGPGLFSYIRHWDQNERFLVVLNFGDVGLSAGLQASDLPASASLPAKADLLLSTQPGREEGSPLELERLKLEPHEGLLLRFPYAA

[6] = target: T3, GLUT1 (Homo sapiens, UniProt P11166); experiment: [3H]3-O-methylglucose uptake by HIBCPP cells; assay type: cell-based; details: 10 s, glucose-free IB
T3 sequence (P11166 1-492): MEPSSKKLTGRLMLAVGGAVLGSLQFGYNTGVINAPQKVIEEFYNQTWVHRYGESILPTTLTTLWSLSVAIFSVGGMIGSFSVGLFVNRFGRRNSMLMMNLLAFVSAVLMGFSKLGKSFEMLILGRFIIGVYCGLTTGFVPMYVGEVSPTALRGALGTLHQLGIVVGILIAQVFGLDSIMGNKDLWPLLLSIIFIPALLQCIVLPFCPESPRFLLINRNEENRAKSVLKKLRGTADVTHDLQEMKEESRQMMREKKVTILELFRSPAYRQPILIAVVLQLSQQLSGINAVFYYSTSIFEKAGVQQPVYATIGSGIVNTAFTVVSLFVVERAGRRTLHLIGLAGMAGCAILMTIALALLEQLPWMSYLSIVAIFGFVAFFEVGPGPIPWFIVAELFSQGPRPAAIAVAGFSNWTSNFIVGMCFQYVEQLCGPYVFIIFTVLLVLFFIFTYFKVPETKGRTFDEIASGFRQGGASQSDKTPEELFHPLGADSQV

[7] = target: GLAST (Homo sapiens, UniProt P43003); experiment: [3H]L-glutamate uptake by HIBCPP cells; assay type: cell-based; details: 1 min
Chain of GLAST (P43003 whole entry): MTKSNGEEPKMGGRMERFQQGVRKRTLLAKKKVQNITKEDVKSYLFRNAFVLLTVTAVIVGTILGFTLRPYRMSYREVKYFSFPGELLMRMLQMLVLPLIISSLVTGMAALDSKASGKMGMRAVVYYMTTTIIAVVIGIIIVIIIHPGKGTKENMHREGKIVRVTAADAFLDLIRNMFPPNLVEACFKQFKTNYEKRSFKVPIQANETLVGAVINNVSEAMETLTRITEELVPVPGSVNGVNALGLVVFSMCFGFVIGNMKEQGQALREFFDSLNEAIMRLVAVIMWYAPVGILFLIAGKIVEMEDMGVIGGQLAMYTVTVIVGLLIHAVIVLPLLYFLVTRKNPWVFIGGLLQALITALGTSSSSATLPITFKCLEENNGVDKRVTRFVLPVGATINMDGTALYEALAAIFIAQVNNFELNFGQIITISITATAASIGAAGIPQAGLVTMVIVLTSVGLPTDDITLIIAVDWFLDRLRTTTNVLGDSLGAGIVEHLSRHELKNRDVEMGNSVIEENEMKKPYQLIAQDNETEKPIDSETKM

[8] = target: CAT1 (Homo sapiens, UniProt P30825); experiment: [3H]L-arginine uptake by HIBCPP cells; assay type: cell-based; details: for Relative uptake (% of control): 1 min
Chain of CAT1 (P30825 whole entry): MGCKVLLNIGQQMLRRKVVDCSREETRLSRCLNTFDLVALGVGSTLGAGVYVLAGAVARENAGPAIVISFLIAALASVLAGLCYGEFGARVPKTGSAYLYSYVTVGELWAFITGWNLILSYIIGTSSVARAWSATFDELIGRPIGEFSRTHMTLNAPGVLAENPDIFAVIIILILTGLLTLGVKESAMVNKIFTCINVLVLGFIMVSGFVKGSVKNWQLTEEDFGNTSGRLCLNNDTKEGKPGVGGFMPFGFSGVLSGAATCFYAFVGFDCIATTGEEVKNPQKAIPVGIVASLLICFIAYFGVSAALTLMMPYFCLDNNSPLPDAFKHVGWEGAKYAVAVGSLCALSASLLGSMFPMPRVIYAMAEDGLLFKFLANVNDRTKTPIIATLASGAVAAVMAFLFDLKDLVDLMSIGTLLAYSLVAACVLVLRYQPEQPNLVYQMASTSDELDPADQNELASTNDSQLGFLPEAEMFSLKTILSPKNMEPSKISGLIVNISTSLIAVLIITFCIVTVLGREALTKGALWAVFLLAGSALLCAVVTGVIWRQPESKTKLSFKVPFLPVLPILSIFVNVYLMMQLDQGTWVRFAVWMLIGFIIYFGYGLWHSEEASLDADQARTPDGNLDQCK

[9] = test system: PMAT; experiment: MPP+ uptake by HIBCPP cells; assay type: cell-based, human; details: 5 min
[10] = test system: OATP1B3; experiment: Telmisartan uptake by HIBCPP cells; assay type: cell-based, human; details: telmisartan uptake at 4°C, 30 s
[11] = Papp,correct (AP-to-BL)/Papp,correct (BL-to-AP)

Cc1[nH]nc(C(F)(F)F)c1Cc1sc2c(c1C(=O)N1C[C@](C)(O)CO1)c(=O)n(C)c(=O)n2C(C)C [AZD3965]
Relative uptake (% of control) ([1]; [14C]L-lactate uptake + 20 nM AZD3965, 30 s): 28.0 % of control and 28.0 ± 1.6 % of control

O=C1CN(/N=C/c2ccc(-c3ccc([N+](=O)[O-])cc3)o2)C(O)=N1 [Dantrolene, Dantrolene sodium]
Papp A→B [2]: 5.98 ± 0.77 ×10⁻⁶ cm/s
Papp A→B at 2 h [2]: 9.28 ± 0.77 ×10⁻⁶ cm/s
Papp B→A [2]: 11.5 ± 0.9 ×10⁻⁶ cm/s
Papp B→A at 2 h [2]: 14.8 ± 0.9 ×10⁻⁶ cm/s
Papp,correct in the BL-to-AP direction relative to the AP-to-BL direction [3]: 2 times
Efflux ratio [3, 11]: 0.52

NC(N)=Nc1nc(CSCCC(N)=NS(N)(=O)=O)cs1 [Famotidine]
Relative uptake (% of control) ([4]; YM155 uptake + 1 mM famotidine): 40.0 ± 8.5 % of control

NCC1(CC(=O)O)CCCCC1 [Gabapentin]
Papp A→B [2]: 10.8 ± 0.6 ×10⁻⁶ cm/s
Papp A→B at 2 h [2]: 14.1 ± 0.6 ×10⁻⁶ cm/s
Papp B→A [2]: 0.213 ± 0.078 ×10⁻⁶ cm/s
Papp B→A at 2 h [2]: 3 ± 0.08 ×10⁻⁶ cm/s
Efflux ratio [3, 11]: 50.7
Relative uptake (% of control) ([5]; gabapentin uptake at 4°C, 1 min): 9.24 ± 0.54 % of control
Decrease of uptake at low temperatures ([5]; gabapentin uptake, low temperature (4°C)): > 90%
Reduction of uptake into HIBCPP cells ([5]; gabapentin, at 4 °C or in the presence of respective inhibitor): more than 80%

OC[C@H]1OC(O)[C@H](O)[C@@H](O)[C@@H]1O (some centres unmarked) [Glucose]
Relative uptake (% of control) ([6]; [3H]3-O-methylglucose uptake + 5.6 mM glucose): 54.7 ± 1.4 % of control

Nc1cc(COc2c(Cl)cc(C[C@H](N)C(=O)O)cc2Cl)c2oc(-c3ccccc3)nc2c1 [JPH203]
Relative uptake (% of control) ([5]; gabapentin uptake + 10 μM JPH203, 1 min): 13.1 ± 0.2 % of control

N[C@@H](CC(=O)O)C(=O)O [L-Aspartic acid]
Relative uptake (% of control) ([7]; [3H]L-glutamate uptake + 1 mM L-aspartic acid): 65.3 ± 4.9 % of control
Relative uptake (% of control) ([7]; [3H]L-glutamate uptake + 1 mM L-aspartic acid, listed as L-aspartic acid): 65.3 % of control

NCCC[C@H](N)C(=O)O [L-Ornithine]
Relative uptake (% of control) ([8]; [3H]L-arginine uptake + 1 mM L-ornithine): 18.7 ± 0.2 % of control

C[n+]1ccc(-c2ccccc2)cc1 [MPP^+, 1-methyl-4-phenylpyridinium]
Relative uptake (% of control) ([9]; MPP+ uptake at 4°C): 22.2 ± 5.5 % of control
Efflux ratio [3, 11]: 1.03

NCCc1c[nH]c2ccc(O)cc12 [Serotonin]
Relative uptake (% of control) ([9]; MPP+ uptake + 1 mM serotonin): 48.6 ± 5.1 % of control

CCCc1nc2c(C)cc(-c3nc4ccccc4n3C)cc2n1Cc1ccc(-c2ccccc2C(=O)O)cc1 [Telmisartan]
Relative uptake (% of control) [10]: 22.9 ± 1.4 % of control
Papp A→B at 2 h [2]: 0.9 ± 0.23 ×10⁻⁶ cm/s
Papp B→A [2]: 10.5 ± 3.3 ×10⁻⁶ cm/s
Papp B→A at 2 h [2]: 13.8 ± 3.3 ×10⁻⁶ cm/s
Efflux ratio ([2]; Efflux ratio, Papp,correct (AP-to-BL)/Papp,correct (BL-to-AP)): < 1

COCCn1c2c([n+](Cc3cnccn3)c1C)C(=O)c1ccccc1C2=O [YM155]
Papp A→B [2]: 3.36 ± 0.34 ×10⁻⁶ cm/s
Papp A→B at 2 h [2]: 6.66 ± 0.34 ×10⁻⁶ cm/s
Papp B→A [2]: 1.32 ± 0.37 ×10⁻⁶ cm/s
Papp B→A at 2 h [2]: 4.59 ± 0.37 ×10⁻⁶ cm/s
Relative uptake (% of control) ([4]; YM155 uptake at 4°C): 27.8 ± 3.0 % of control

[3H]CO[C@H]1[C@H](O)[C@@H](CO)OC(O)[C@@H]1O (stereo partly drawn) [[^3H]3-O-Methylglucose, methyl-D-glucose 3-O-[methyl-^3H]]
Efflux ratio [3, 11]: 1.05
Relative uptake (% of control) ([6]; [3H]3-O-methylglucose uptake at 4°C): 14.0 ± 1.3 % of control

NC(N)=NCCC[C@H](N)C(=O)O [[^3H]L-Arginine, arginine L-[2,3,4-^3H]]
Efflux ratio [3, 11]: exceed 1
Relative uptake (% of control) ([8]; [3H]L-arginine uptake at 4°C): 6.80 ± 0.69 % of control
Decrease of uptake at low temperatures ([8]; [3H]L-arginine uptake, low temperature (4°C)): > 90%
Reduction of uptake into HIBCPP cells ([8]; [3H]L-arginine, at 4 °C or in the presence of respective inhibitor): more than 80%

[14CH3][14CH](O)[14C](=O)[O-].[Na+] [[^14C]L-Lactate, lactic acid L-[^14C(U)] Na salt]
Relative uptake (% of control) ([1]; [14C]L-lactate uptake at 4°C, 30 s): 17.7 % of control and 17.7 ± 0.4 % of control
Papp AP-to-BL ([3]; AP side pH 6.0 BL side pH 7.4): 30.6 ± 2.0 × 10^–6 cm/sec
Papp BL-to-AP ([3]; AP side pH 6.0 BL side pH 7.4): 4.71 ± 0.14 × 10^–6 cm/sec
Efflux ratio ([3]; AP side pH 6.0 BL side pH 7.4, Papp,correct (AP-to-BL)/(BL-to-AP)): 19.0
Papp,correct AP-to-BL ([3]; AP side pH 6.0 BL side pH 7.4): 27.3 ± 2.0 × 10^–6 cm/sec
Papp,correct BL-to-AP ([3]; AP side pH 6.0 BL side pH 7.4): 1.44 ± 0.14 × 10^–6 cm/sec
Papp AP-to-BL ([3]; AP side pH 7.4 BL side pH 6.0): 3.05 ± 0.09 × 10^–6 cm/sec
Papp BL-to-AP ([3]; AP side pH 7.4 BL side pH 6.0): 11.5 ± 0.1 × 10^–6 cm/sec
Papp,correct BL-to-AP ([3]; AP side pH 7.4 BL side pH 6.0): 8.20 ± 0.11 × 10^–6 cm/sec
Papp AP-to-BL ([3]; AP side pH 7.4 BL side pH 7.4): 9.56 ± 0.20 × 10^–6 cm/sec
Papp BL-to-AP ([3]; AP side pH 7.4 BL side pH 7.4): 8.84 ± 0.36 × 10^–6 cm/sec
Efflux ratio ([3]; AP side pH 7.4 BL side pH 7.4, Papp,correct (AP-to-BL)/(BL-to-AP)): 1.12
Papp,correct AP-to-BL ([3]; AP side pH 7.4 BL side pH 7.4): 6.26 ± 0.20 × 10^–6 cm/sec
Papp,correct BL-to-AP ([3]; AP side pH 7.4 BL side pH 7.4): 5.57 ± 0.36 × 10^–6 cm/sec

glutamic acid L-[2,3,4-^3H] [[^3H]L-Glutamate]
Papp,correct in the BL-to-AP direction relative to the AP-to-BL direction [3]: approximately 2 times
Efflux ratio [3, 11]: 0.45
Efflux ratio ([3]; Papp,correct (AP-to-BL)/Papp,correct (BL-to-AP), listed as [^3H]L-glutamate): below 1
Relative uptake (% of control) ([7]; [3H]L-glutamate uptake at 4°C): 17.7 ± 3.0 % of control
Relative uptake (% of control) ([7]; [3H]L-glutamate uptake at 4°C, listed as [^3H]L-glutamate): 17.7 % of control
